From patent publication US20020133846A1, “Method for protecting plants” (priority 1996, published 2002) come the findings set out here.

For test [1], the system named is Cercospora nicotianae. The test is described as follows: Action against Cercospora nicotianae on tobacco plants. Type of test: in vivo.
Test [2] has as its system Peronospora parasitica isolate Emwa. Kind of test: Action against Peronospora parasitica in Arabidopsis overexpressing NIM1 (lines 6E, 7C) and wild-type Ws. Type of test: in vivo. The settings on record: for inhibition at 500 µg/mL: fosetyl 0.5 g/l; for inhibition at 5000 µg/mL: fosetyl 5.0 g/l. The source says: The plant lines used in this example (6E and 7C) were generated from transformation of wild-type Arabidopsis thaliana plants (ecotype Ws) with the BamHI-HindIII NIM1 genomic fragment (SEQ ID NO:1—bases 1249-5655), as described above in Example 21. The fungicides metalaxyl, fosetyl, and copper hydroxide, formulated as 25%, 80%, and 70% active ingredient (ai), respectively, with a wettable powder carrier, were applied as fine mist to leaves of three week-old transgenic Ws plants constitutively expressing the NIM1 gene. The wettable powder alone was applied as a control. Three days later, plants were inoculated with a Peronospora parasitica isolate Emwa conidial suspension (1-2×10^5 spores/ml), as described in Delaney et al. (1995). Following inoculation, plants were covered to maintain high humidity and were placed in a Percival growth chamber at 17° C. with a 14-hr day/10-hr night cycle (Uknes et al., 1993). Tissue was harvested 8 days after inoculation.
Fungal infection progression was followed for 12 days by viewing under a dissecting microscope to score development of conidiophores (Delaney, et al. (1994); Dietrich, et al. (1994)). Lactophenoltrypan blue staining of individual leaves was carried out to observe fungal growth within leaf tissue. Fungal growth was quantified using a rRNA fungal probe obtained by PCR according to White et al. (1990; PCR Protocols: A guide to Methods and Application, 315-322) using primers NS1 and NS2 and P. parasitica EmWa DNA as templates. RNA was purified from frozen tissue by phenol/chloroform extraction following lithium chloride precipitation (Lagrimini et al, 1987: PNAS, 84: 7542-7546). Samples (7.5 μg) were separated by electrophoresis through formaldehyde agarose gels and blotted to nylon membranes (Hybond-N+, Amersham) as described by Ausbel et al. (1987). Hybridizations and washing were according to Church and Gilbert (1984, PNAS, 81: 1991-1995). Relative amounts of the transcript were determined using a Phosphor Imager (Molecular Dynamics, Sunnyvale, Calif.) following manufacturers instructions. Sample loading was normalized by probing stripped filter blots with the constitutively expressed b-tubulin Arabidopsis cDNA.

Test [3] deals with Peronospora parasitica Emwa. The test is described as follows: Action against Peronospora parasitica Emwa in Arabidopsis thaliana (Ws), rRNA fungal probe. Type of test: in vivo.
The subject of test [4] is Pyricularia oryzae. Type of test: in vivo.
For test [5], the system named is Colletotrichum lagenarium. The test is described as follows: Action against Colletotrichum lagenarium on Cucumis sativus L., soil application. Type of test: in vivo.
Test [6] concerns Colletotrichum lagenarium. Kind of test: Action against Colletotrichum lagenarium on Cucumis sativus L., foliar application. Type of test: in vivo.
The subject of test [7] is Puccinia recondita. Kind of test: Action against Puccinia recondita in wheat.
Procedure: 7-day-old wheat plants were sprayed to drip point with a spray mixture prepared from a formulated active ingredient, or combination of active ingredients. After 4 days, the treated plants were infected with a conidia suspension of the fungus, and the treated plants were subsequently incubated for 2 days at a relative atmospheric humidity of 90-100% and 20 C. 10 days post-infection, the fungus infestation was assessed.
Test [8] has as its system Erysiphe graminis. Kind of test: Action against Erysiphe graminis on barley (residual-protective / systemic).
Procedure: Residual-protective action: Barley plants about 8 cm in height were sprayed to drip point with an aqueous spray mixture (max. 0.02 % active ingredient) and were dusted 3 to 4 days later with conidia of the fungus. The infected plants were stood in a greenhouse at 22°. Fungus infestation was generally evaluated 10 days after infection.
Systemic action: Barley plants about 8 cm in height were watered with an aqueous spray mixture (max. 0.002 % active ingredient, based on the volume of the soil). […] The plants were dusted with conidia of the fungus 3 to 4 days later. The infected plants were stood in a greenhouse at 22°. Fungus infestation was generally evaluated 10 days after infection.
In test [9] the test system is Pyricularia oryzae. Type of test: in vivo. This is another data set of the same source.
[10] abbreviates: Hyaloperonospora parasitica, in Arabidopsis thaliana, Table 37, wt Ws, read-out: Fungal Growth Inhibition % O (observed).
Where [11] appears, read: Hyaloperonospora parasitica, in Arabidopsis thaliana, wild-type Ws (Table 38), read-out: Fungal Growth Inhibition % O (observed).

Like-named read-outs stand apart in the source and are kept apart here.

Usually inhibition stands for how much of the control response was suppressed.

As to `CC(Cc1ccc(C(C)(C)C)cc1)CN1C[C@@H](C)O[C@@H](C)C1` (relative stereo) [fenpropimorph, cis-4-[3-(4-tert-butylphenyl)-2-methylpropyl]-2,6-dimethylmorpholine], the “% action O (observed)” value in [1] (Table 11, comp. II alone 2 kg a.i. per ha) is 13%; in test [1] (Table 11, comp. II alone 6 kg a.i. per ha) it was 23%; in test [1] (Table 11, comp. II alone 10 kg a.i. per ha), 42%.
For the compound `[Cu+2].[OH-].[OH-]` [Cu(OH)2, copper hydroxide], the “Fungal Growth Inhibition % O (observed)” value amounted to 0% in test [2] (Cu(OH)2 0.02 g/l, wild-type Ws (Table 39)); 0% in test [2] (Cu(OH)2 0.02 g/l, wild-type Ws (Table 40)); 0% in [2] (Cu(OH)2 0.2 g/l, wild-type Ws (Table 39)); 0% in test [2] (Cu(OH)2 0.2 g/l, wild-type Ws (Table 40)); 0% in [2] (Cu(OH)2 2.0 g/l, wild-type Ws (Table 39)); 0% in [2] (Cu(OH)2 2.0 g/l, wild-type Ws (Table 40)). For the same compound, in test [3] (Table 32, Ws, Cu(OH)2 alone 0.01 g/l), the “Fungal Growth Inhibition % O (observed)” value is reported as 0%.
On to `CCC1(C(=O)NC(C)c2ccc(Cl)cc2)C(C)C1(Cl)Cl` [KTU 3616, (1R,3S/1S,3R)-2,2-dichloro-N-[(R)-1-(4-chlorophenyl)ethyl]-1-ethyl-3-methylcyclopropanecarboxamide], for which the “% action O (observed)” value in test [4] (Table 13, comp. II alone 0.02 ppm) worked out at 0%; in test [4] (Table 13, comp. II alone 0.06 ppm), 28%; in [4] (Table 13, comp. II alone 0.2 ppm), 47%; in [4] (Table 13, comp. II alone 0.6 ppm), 79%; in test [4] (Table 13, comp. II alone 2 ppm), 83%; in [4] (Table 13, comp. II alone 6 ppm), 91%.
Consider `CO/C=C(/C(=O)OC)c1ccccc1Oc1cc(Oc2ccccc2C#N)ncn1` [azoxystrobin, methyl-(E)-2-{2-[6-(2-cyanophenoxy)pyrimidin-4-yloxy]phenyl}-3-methoxyacrylate], for which the “% action O (observed)” value in test [5] (Table 5, comp. II alone 0.2 ppm) is listed as 0%; in [5] (Table 5, comp. II alone 0.6 ppm) it was 9%; in test [5] (Table 5, comp. II alone 2 ppm) it was 28%; in test [5] (Table 5, comp. II alone 6 ppm) it was 66%; in [5] (Table 8, comp. II alone 0.02 ppm), 1%; in test [5] (Table 8, comp. II alone 0.06 ppm) it was 5%. Further, the “% action O (observed)” value in test [5] (Table 8, comp. II alone 0.6 ppm) is given as 27%; in [5] (Table 8, comp. II alone 2 ppm), 61%; in test [5] (Table 8, comp. II alone 6 ppm), 93%; in test [6] (Table 4, comp. II alone 0.06 ppm) it was 5%; in test [6] (Table 4, comp. II alone 0.2 ppm) it was 9%; in test [6] (Table 4, comp. II alone 0.6 ppm) it was 12%. The “% action O (observed)” value in test [6] (Table 4, comp. II alone 6 ppm) is reported as 17%; in test [6] (Table 7, comp. II alone 2 ppm), 18%; in test [6] (Table 7, comp. II alone 6 ppm) it was 75%.
Turning to `CO/N=C(/C(=O)OC)c1ccccc1COc1ccccc1C` [cresoxime methyl, methyl-(E)-2-methoximino-2-[μ-(o-tolyloxy)-o-tolyl]acetate], the “% action O (observed)” value in test [6] (Table 6, comp. II alone 2 ppm) turned out to be 0%; in test [6] (Table 6, comp. II alone 20 ppm) it was 41%.
As to `CC(C1CC1)C(O)(Cn1cncn1)c1ccc(Cl)cc1` (stereo not shown) [cyproconazol, μ-(4-chlorophenyl)-μ-(1-cyclopropylethyl)-1H-1,2,4-triazole-1-ethanol], the “% action O (observed)” value was 0% in test [1] (Table 10, comp. II alone 2 ppm) and 0% in [1] (Table 10, comp. II alone 6 ppm).
In the case of `CC1COC(Cn2cncn2)(c2ccc(Oc3ccc(Cl)cc3)cc2Cl)O1` (stereo not shown) [difenoconazole, 1-{2-[2-chloro-4-(4-chlorophenoxy)phenyl]-4-methyl-1,3-dioxolan-2-ylmethy 1)-1H-1,2,4-triazole], the “% action O (observed)” value in [1] (Table 12, comp. II alone 0.6 kg a.i. per ha) came to 3%; in test [1] (Table 12, comp. II alone 2 kg a.i. per ha) it was 23%; in test [1] (Table 12, comp. II alone 6 kg a.i. per ha), 32%.
Regarding `CC(Cc1ccc(C(C)(C)C)cc1)CN1CCCCC1` (stereo not shown) [fenpropidine, 1-[3-(4-tert-butylphenyl)-2-methylpropyl]-piperidine], the “% action O (observed)” value was 40% in test [7] (Table 20, comp. II alone 20 kg a.i. per ha) and 60% in [7] (Table 20, comp. II alone 60 kg a.i. per ha).
In the case of `CCO[PH](=O)O` [fosetyl, ethyl hydrogen phosphonate], the inhibition at 50 µg/mL in test [2] (Hyaloperonospora parasitica, in Arabidopsis thaliana, Table 37, wt Ws, fosetyl 0.05 g/l, read-out: Fungal Growth Inhibition % O (observed)) stood at 0%. In test [2] (setting [10]), the inhibition at 500 µg/mL is 2% and the inhibition at 5000 µg/mL was found to be 7%. In addition, in test [2] (setting [11]), the inhibition at 500 µg/mL was 2% and the inhibition at 5000 µg/mL was 7%. For the same compound, the inhibition at 40 µg/mL in [3] (Hyaloperonospora parasitica, in Arabidopsis thaliana, Table 31, Ws, fosetyl alone 0.04 g/l, read-out: Fungal Growth Inhibition % O (observed)) is 0%. In test [3] (Hyaloperonospora parasitica, in Arabidopsis thaliana, Table 31, Ws, fosetyl alone 0.2 g/l, read-out: Fungal Growth Inhibition % O (observed)), the inhibition at 200 µg/mL is 10%. The inhibition at 1000 µg/mL in test [3] (Hyaloperonospora parasitica, in Arabidopsis thaliana, Table 31, Ws, fosetyl alone 1.0 g/l, read-out: Fungal Growth Inhibition % O (observed)) amounted to 40%.
As to `CC1(C)CCC(Cc2ccc(Cl)cc2)C1(O)Cn1cncn1` (stereo not shown) [metconazol, 5-(4-chlorobenzyl)-2,2-dimethyl-1-(1H-1,2,4-triazol-1-ylmethyl)-cyclopentanol], the “% action O (observed)” value is 10% in test [8] (Table 1, comp. II alone 0.6 ppm); 40% in [8] (Table 1, comp. II alone 2 ppm); 51% in test [8] (Table 1, comp. II alone 6 ppm); 65% in test [8] (Table 1, comp. II alone 20 ppm); 17% in [8] (Table 3, comp. II alone 6 ppm); 33% in test [8] (Table 3, comp. II alone 20 ppm). Moreover, the “% action O (observed)” value in test [8] (Table 3, comp. II alone 60 ppm) turned out to be 50%.
Turning to `CC(C)(C)C(O)(CCc1ccc(Cl)cc1)Cn1cncn1` (stereo not shown) [tebuconazol, μ-[2-(4-chlorophenyl)ethyl]-μ-(1,1-dimethylethyl)-1H-1,2,4-triazole-1-ethanol], the “% action O (observed)” value in [1] (Table 9, comp. II alone 2 ppm) was found to be 0%; in test [1] (Table 9, comp. II alone 6 ppm), 0%.
On to `Cc1cccc2sc3nncn3c12` [tricyclazole, 5-methyl-1,2,4-triazolo[3,4-b][1,3]benzothiazole], for which the “% action O (observed)” value in test [9] (Table 15, comp. II alone 0.1 ppm) was 32%; in [9] (Table 15, comp. II alone 0.25 ppm), 48%; in [9] (Table 15, comp. II alone 0.5 ppm) it was 71%; in test [9] (Table 15, comp. II alone 1 ppm), 74%.
